This test addresses recombinant human α5β1 (Homo sapiens, UniProt P05556+P08648). Briefly: In Vitro Binding Assay (a): inhibition of binding of α5β1 integrin to a fragment of human fibronectin (Fn9-10), Origen electrochemiluminescence. Particulars: geometric mean where tested more than once. The text has this: The assay determined the ability of compounds to inhibit binding of α5β1 integrin to a cognate ligand, a fragment of human fibronectin. The assay used Origen technology (IGEN International) to measure the compound activity. Briefly, α5β1 integrin was coated onto epoxy-paramagnetic beads (Dynal Biotech UK, Bromborough, Wirral, CH62 3QL, UK, Catalogue No 140.11) and biotinylated-fibronectin ligand was coupled to strepatividin labeled Tag-NHS-Ester (BioVeris Corporation, Witney, Oxfordshire, OX28 4GE, UK, Catalogue No 110034). The ruthenium-labeled tag emits an electrochemiluminescence signal upon stimulation which is detected by the Origen reader. Thus, interaction of integrin and ligand causes association of bead and tag, and the resulting electrochemiluminescence signal reflects the level of integrin interaction with fibronectin.
20 μg of recombinant human α5β1 was coated onto 4×10(7) epoxy-paramagnetic beads according to manufacturers instructions at 4° C. for 24 hours. Integrin coating and corresponding activity was subsequently measured for each batch but typically, 25 ng of coated protein was used per assay well.
A DNA fragment encoding the domains 9-10 (amino-acids 1325-1509) of human fibronectin (Swiss-Prot Accession No. P02751) was isolated from cDNA libraries using standard molecular biology and PCR cloning techniques. The cDNA fragment was sub-cloned into a pT73.3 expression vector containing a GST-epitope tag (developed at AstraZeneca; Bagnall et al., Protein Expression and Purification, 2003, 27: 1-11). Following expression in E. coli, the expressed protein, termed Fn9-10, was purified using the GST-tag using standard purification techniques. The recombinant Fn9-10 was subsequently biotinylated using a EZ-link Sulfo-NHS-LC-Biotinylation kit (Perbio Science UK Ltd., Cramlington, Northumberland, NE23 1WA, UK, Catalogue No. 21335) and made to give a final concentration of approximately 1 mg/ml. Tag-NHS-Ester was labeled with streptavidin by incubation at room temperature following manufacturers instructions and buffer-exchanged into PBS to give a concentration of 0.5 mg/ml. Immediately prior to the assay, biotinylated-Fn9-10 and Streptavidin-labeled Tag were diluted in Assay Buffer to give a final concentrations of 0.6 ug/ml and 1.5 ug/ml respectively. The Fn9-10 and Tag solutions were then mixed together in equal volumes and incubated on ice for at least 30 minutes prior to the assay.
Aliquots (20 μl) of each compound dilution were placed into each well of a 384-well round bottomed polypropylene plate (Matrix Technologies, Wilmslow, Cheshire, SK9 3LP, Catalogue No. 4340 384).
For the assay, 25 ng (20 ul) of a5b1-bead suspension and 40 μl of the Fn9-10/Tag pre-incubated solution were added to each well containing 20 μl of compound or control solution. Assay plates were then incubated at room temperature for a minimum of 6 hours before being analysed on an Origen plate reader. The minimum value was subtracted from all values, and the signal was plotted against compound concentration to generate IC50 data.
The data in the above table was generated in an assay substantially as described above in relation to Binding Assay (a). Some of the compounds shown in the table were tested more than once in the assay. For those compounds the IC50 value shown is the geometric mean of the measured IC50 values.

Among the data in US20090062267A1, “L-ALANINE DERIVATIVES AS a5beta1 ANTAGONISTS” (ASTRAZENECA AB, priority 2007, published 2009) are IC50 values, retold here.

Chain of recombinant human α5β1 (P08648 42-1049): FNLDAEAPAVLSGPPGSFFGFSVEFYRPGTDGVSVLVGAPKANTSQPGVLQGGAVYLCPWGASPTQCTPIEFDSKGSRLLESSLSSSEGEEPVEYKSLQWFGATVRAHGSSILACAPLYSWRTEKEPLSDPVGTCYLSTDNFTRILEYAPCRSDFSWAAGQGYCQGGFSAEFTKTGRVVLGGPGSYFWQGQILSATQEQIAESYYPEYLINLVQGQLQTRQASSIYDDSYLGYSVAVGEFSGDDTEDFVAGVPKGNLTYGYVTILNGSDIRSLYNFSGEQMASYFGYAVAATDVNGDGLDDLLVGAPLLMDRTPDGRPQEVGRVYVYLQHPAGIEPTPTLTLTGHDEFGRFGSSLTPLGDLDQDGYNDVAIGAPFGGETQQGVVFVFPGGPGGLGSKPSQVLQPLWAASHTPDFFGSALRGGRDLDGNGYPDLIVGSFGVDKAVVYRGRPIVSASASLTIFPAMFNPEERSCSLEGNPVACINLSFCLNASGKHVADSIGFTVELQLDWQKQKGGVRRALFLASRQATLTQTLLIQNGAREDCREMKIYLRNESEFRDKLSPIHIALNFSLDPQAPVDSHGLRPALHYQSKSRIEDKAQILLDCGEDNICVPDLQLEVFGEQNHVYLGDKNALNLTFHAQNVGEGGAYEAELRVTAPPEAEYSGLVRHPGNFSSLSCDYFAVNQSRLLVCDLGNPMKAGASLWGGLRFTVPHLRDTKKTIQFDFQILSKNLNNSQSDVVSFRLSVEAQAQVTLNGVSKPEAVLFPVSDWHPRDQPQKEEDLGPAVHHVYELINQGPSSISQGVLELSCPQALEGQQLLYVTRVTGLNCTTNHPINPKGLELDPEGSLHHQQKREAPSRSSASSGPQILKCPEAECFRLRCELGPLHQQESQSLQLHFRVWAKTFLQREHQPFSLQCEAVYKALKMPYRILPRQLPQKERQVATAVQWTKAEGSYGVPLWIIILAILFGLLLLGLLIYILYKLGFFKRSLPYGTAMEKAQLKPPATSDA
Chain of recombinant human α5β1 (P05556 21-798): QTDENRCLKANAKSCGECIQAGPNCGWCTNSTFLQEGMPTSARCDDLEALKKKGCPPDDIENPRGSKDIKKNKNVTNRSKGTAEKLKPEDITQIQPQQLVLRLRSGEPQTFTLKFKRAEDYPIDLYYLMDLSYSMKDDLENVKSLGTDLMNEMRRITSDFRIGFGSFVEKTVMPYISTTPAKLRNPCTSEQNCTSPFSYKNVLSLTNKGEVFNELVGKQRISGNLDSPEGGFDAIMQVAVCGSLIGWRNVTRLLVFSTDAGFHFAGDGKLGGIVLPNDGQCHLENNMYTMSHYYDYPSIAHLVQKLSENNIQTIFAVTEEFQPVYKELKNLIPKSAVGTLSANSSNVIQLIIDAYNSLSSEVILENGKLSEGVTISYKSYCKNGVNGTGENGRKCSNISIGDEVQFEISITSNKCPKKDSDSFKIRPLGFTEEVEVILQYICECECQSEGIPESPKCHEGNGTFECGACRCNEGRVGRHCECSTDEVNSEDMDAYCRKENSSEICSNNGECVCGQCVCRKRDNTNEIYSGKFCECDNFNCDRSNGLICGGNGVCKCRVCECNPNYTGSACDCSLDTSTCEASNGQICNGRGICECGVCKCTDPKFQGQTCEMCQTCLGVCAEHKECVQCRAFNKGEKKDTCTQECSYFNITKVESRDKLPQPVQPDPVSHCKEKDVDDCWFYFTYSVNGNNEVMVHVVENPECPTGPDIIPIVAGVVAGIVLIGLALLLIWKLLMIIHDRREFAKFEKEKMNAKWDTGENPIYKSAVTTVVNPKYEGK

As a reminder, the IC50 is the concentration needed to halve the response being measured. For `CNc1cccc(CCOc2ccc(C[C@H](NC(=O)c3cccnc3Cl)C(=O)O)cc2)n1` [Example 3.1, N-[(2-chloropyridin-3-yl)carbonyl]-O-{2-[6-(methylamino)pyridin-2-yl]ethyl}-L-tyrosine], the IC50 was found to be 20 nM.

Regarding `O=C(N[C@@H](Cc1ccc(CCCc2ccc3c(n2)NCCC3)nc1)C(=O)O)c1sccc1Cl` [Example 10, N-[(3-chloro-2-thienyl)carbonyl]-3-{6-[3-(5,6,7,8-tetrahydro-1,8-naphthyridin-2-yl)propyl]pyridin-3-yl}-L-alanine], the concentration for half-maximal inhibition (IC50) was 2.5 nM.

`CNc1cccc(CCOc2ccc(C[C@H](NC(=O)c3ccc(C)nc3Cl)C(=O)O)cc2)n1` [Example 1.2, N-[(2-chloro-6-methylpyridin-3-yl)carbonyl]-O-{2-[6-(methylamino)pyridin-2-yl]ethyl}-L-tyrosine]: the concentration for half-maximal inhibition (IC50) worked out at 19 nM.

Take `Cc1noc(C)c1C(=O)N[C@@H](Cc1ccc(OCCc2ccc3c(n2)NCCO3)cc1)C(=O)O` [Example 4.3, O-[2-(3,4-dihydro-2H-pyrido[3,2-b][1,4]oxazin-6-yl)ethyl]-N-[(3,5-dimethylisoxazol-4-yl)carbonyl]-L-tyrosine]: the IC50 was determined as 1 nM.

For `CCc1cc(C(=O)N[C@@H](Cc2ccc(OCCc3cccc(NC)n3)cc2)C(=O)O)cs1` [Example 1.28, N-[(5-ethyl-3-thienyl)carbonyl]-O-{2-[6-(methylamino)pyridin-2-yl]ethyl}-L-tyrosine], the IC50 was 75 nM.

With `CNc1cccc(CCOc2ccc(C[C@H](NC(=O)c3ncc(C(F)(F)F)cc3Cl)C(=O)O)cc2)n1` [Example 1.25, N-{[3-chloro-5-(trifluoromethyl)pyridin-2-yl]carbonyl}-O-{2-[6-(methylamino)pyridin-2-yl]ethyl}-L-tyrosine], the IC50 was 36 nM.

As for `CNc1cccc(CCOc2ccc(C[C@H](NC(=O)c3ccncc3Cl)C(=O)O)cc2)n1` [Example 2.1, N-(3-chloroisonicotinoyl)-O-{2-[6-(methylamino)pyridin-2-yl]ethyl}-L-tyrosine], the IC50 is 7 nM.

`O=C(N[C@@H](Cc1ccc(OCCc2ccc3c(n2)NCCC3)cc1)C(=O)O)c1sccc1Cl` [Example 5.2, N-[(3-chlorothiophen-2-yl)carbonyl]-O-[2-(5,6,7,8-tetrahydro-1,8-naphthyridin-2-yl)ethyl]-L-tyrosine]: the IC50 stood at 1 nM.

Consider `CNc1cccc(CCOc2ccc(C[C@H](NC(=O)c3ncccc3Cl)C(=O)O)cc2)n1` [Example 1.23, N-[(3-chloropyridin-2-yl)carbonyl]-O-{2-[6-(methylamino)pyridin-2-yl]ethyl}-L-tyrosine], for which the IC50 is 24 nM.

Regarding `CNc1cccc(CCOc2ccc(C[C@H](NC(=O)c3scc(C)c3Cl)C(=O)O)cc2)n1` [Example 1.17, N-[(3-chloro-4-methyl-2-thienyl)carbonyl]-O-{2-[6-(methylamino)pyridin-2-yl]ethyl}-L-tyrosine], the IC50 amounted to 89 nM.

With `CNc1cccc(CCOc2ccc(C[C@H](NC(=O)c3conc3C)C(=O)O)cc2)n1` [Example 2.2, O-{2-[6-(methylamino)pyridin-2-yl]ethyl}-N-[(3-methylisoxazol-4-yl)carbonyl]-L-tyrosine], the IC50 was determined as 23 nM.

As for `O=C(N[C@@H](Cc1ccc(OCCc2ccc3c(n2)NCCC3)cc1)C(=O)O)c1c(Cl)cncc1Cl` [Example 5.5, N-[(3,5-dichloropyridin-4-yl)carbonyl]-O-[2-(5,6,7,8-tetrahydro-1,8-naphthyridin-2-yl)ethyl]-L-tyrosine], the IC50 was under 1 nM.

On to `CNc1cccc(CCOc2ccc(C[C@H](NC(=O)c3ccc(OC)nc3OC)C(=O)O)cc2)n1` [Example 3.2, N-[(2,6-dimethoxypyridin-3-yl)carbonyl]-O-{2-[6-(methylamino)pyridin-2-yl]ethyl}-L-tyrosine], for which the IC50 amounted to 352 nM.

In the case of `CCCc1cc(C(=O)N[C@@H](Cc2ccc(OCCc3cccc(NC)n3)cc2)C(=O)O)cs1` [Example 1.29, O-{2-[6-(methylamino)pyridin-2-yl]ethyl}-N-[(5-propyl-3-thienyl)carbonyl]-L-tyrosine], the IC50 was 71 nM.

With `CNc1cccc(CCOc2ccc(C[C@H](NC(=O)c3cccn3C)C(=O)O)cc2)n1` [Example 1.4, O-{2-[6-(methylamino)pyridin-2-yl]ethyl}-N-[(1-methyl-1H-pyrrol-2-yl)carbonyl]-L-tyrosine], the IC50 is 55 nM.

With `CNc1cccc(CCOc2ccc(C[C@H](NC(=O)c3ccc(Cl)nc3Cl)C(=O)O)cc2)n1` [Example 2.4, N-[(2,6-dichloropyridin-3-yl)carbonyl]-O-{2-[6-(methylamino)pyridin-2-yl]ethyl}-L-tyrosine], the IC50 is 39 nM.

Turning to `CNc1cccc(CCOc2ccc(C[C@H](NC(=O)c3ocnc3C)C(=O)O)cc2)n1` [Example 1.18, O-{2-[6-(methylamino)pyridin-2-yl]ethyl}-N-[(4-methyl-1,3-oxazol-5-yl)carbonyl]-L-tyrosine], the concentration for half-maximal inhibition (IC50) is 250 nM.

With `CNc1cccc(CCOc2ccc(C[C@H](NC(=O)c3cnccc3Cl)C(=O)O)cc2)n1` [Example 2.8, N-[(4-chloropyridin-3-yl)carbonyl]-O-{2-[6-(methylamino)pyridin-2-yl]ethyl}-L-tyrosine], the IC50 came out at 8 nM.

`O=C(N[C@@H](Cc1ccc(CCCc2ccc3c(n2)NCCC3)cn1)C(=O)O)c1sccc1Cl` [Example 8, N-[(3-chlorothiophen-2-yl)carbonyl]-3-{5-[3-(5,6,7,8-tetrahydro-1,8-naphthyridin-2-yl)propyl]pyridin-2-yl}-L-alanine]: the IC50 is 4 nM.

`O=C(N[C@@H](Cc1ccc(OCCc2ccc3c(n2)NCCO3)cc1)C(=O)O)c1ccncc1Cl` [Example 4.4, N-[(3-chloropyridin-4-yl)carbonyl]-O-[2-(3,4-dihydro-2H-pyrido[3,2-b][1,4]oxazin-6-yl)ethyl]-L-tyrosine]: the IC50 is 5 nM.

In the case of `CNc1cccc(CCOc2ccc(C[C@H](NC(=O)c3ccoc3C)C(=O)O)cc2)n1` [Example 1.12, O-{2-[6-(methylamino)pyridin-2-yl]ethyl}-N-(2-methyl-3-furoyl)-L-tyrosine], the IC50 stood at 21 nM.

For the molecule `O=C(N[C@@H](Cc1ccc(OCCc2ccc3c(n2)NCCC3)cn1)C(=O)O)c1sccc1Cl` [Example 6, N-[(3-chlorothiophen-2-yl)carbonyl]-3-{5-[2-(5,6,7,8-tetrahydro-1,8-naphthyridin-2-yl)ethoxy]pyridin-2-yl}-L-alanine], the concentration for half-maximal inhibition (IC50) was under 1 nM.

For the molecule `O=C(N[C@@H](Cc1ccc(OCCc2ccc3c(n2)NCCO3)cc1)C(=O)O)c1sccc1Cl` [Example 4.2, N-[(3-chlorothiophen-2-yl)carbonyl]-O-[2-(3,4-dihydro-2H-pyrido[3,2-b][1,4]oxazin-6-yl)ethyl]-L-tyrosine], the IC50 turned out to be 51 nM.

As to `CNc1cccc(CCOc2ccc(C[C@H](NC(=O)c3c(C)nn(C)c3C)C(=O)O)cc2)n1` [Example 1.14, O-{2-[6-(methylamino)pyridin-2-yl]ethyl}-N-[(1,3,5-trimethyl-1H-pyrazol-4-yl)carbonyl]-L-tyrosine], the IC50 was 13 nM.

Take `CNc1cccc(CCOc2ccc(C[C@H](NC(=O)c3nc(C)oc3C)C(=O)O)cc2)n1` [Example 1.20, N-[(2,5-dimethyl-1,3-oxazol-4-yl)carbonyl]-O-{2-[6-(methylamino)pyridin-2-yl]ethyl}-L-tyrosine]: the IC50 was found to be 349 nM.
